Results on 17 molecules are retold here after patent US20260159512A1, “BCAT2 INHIBITORS” (AGIOS PHARMACEUTICALS, INC., priority 2021, published 2026).

Settings in all cases: average where tested multiple times
The target of assay [1] is T1, BCAT2 (Homo sapiens, UniProt O15382).
T1 sequence (O15382 28-392): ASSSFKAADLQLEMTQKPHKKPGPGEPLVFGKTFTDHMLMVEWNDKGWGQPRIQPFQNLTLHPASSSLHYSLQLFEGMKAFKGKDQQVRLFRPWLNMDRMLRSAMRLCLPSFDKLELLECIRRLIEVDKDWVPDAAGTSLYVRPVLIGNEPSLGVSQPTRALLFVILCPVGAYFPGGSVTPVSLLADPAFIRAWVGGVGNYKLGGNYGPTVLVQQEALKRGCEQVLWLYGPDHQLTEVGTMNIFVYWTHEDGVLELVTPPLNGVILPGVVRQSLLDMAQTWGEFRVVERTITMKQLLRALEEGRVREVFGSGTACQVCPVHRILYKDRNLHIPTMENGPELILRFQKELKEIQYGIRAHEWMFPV
Description: BCAT2 in vitro enzyme inhibition assay (resazurin/diaphorase-coupled fluorescence). The class given is biochemical. A digest of the protocol: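 Coupled fluorescence readout: glutamate formed from L-leucine/α-ketoglutarate transamination drives GDH/NAD/diaphorase reduction of resazurin (Ex 540/Em 590). Human BCAT2 was first exposed 1 h at room temperature to compound, top final 100 μM in 3-fold, 10-point series; substrate reaction ran 1 h before SDS quench, in technical duplicate with DMSO max and enzyme-free min controls.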
In general terms: Alamar Blue is a resazurin reagent that responds to reducing activity.

Assay [2] has as its target T2, hBCAT1 (Homo sapiens, UniProt P54687).
T2 sequence (P54687 1-386): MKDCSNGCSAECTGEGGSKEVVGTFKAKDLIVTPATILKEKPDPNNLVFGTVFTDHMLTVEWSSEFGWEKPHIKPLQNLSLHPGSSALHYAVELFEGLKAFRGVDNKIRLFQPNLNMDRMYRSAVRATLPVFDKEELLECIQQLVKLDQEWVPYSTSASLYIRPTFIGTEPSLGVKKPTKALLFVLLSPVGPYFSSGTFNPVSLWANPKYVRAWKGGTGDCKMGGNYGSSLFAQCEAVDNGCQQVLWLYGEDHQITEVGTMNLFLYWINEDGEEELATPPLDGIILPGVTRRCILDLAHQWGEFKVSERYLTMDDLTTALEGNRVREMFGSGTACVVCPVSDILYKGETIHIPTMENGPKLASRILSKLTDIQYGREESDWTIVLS
Nature of the assay: BCAT1 in vitro enzyme inhibition assay (resazurin/diaphorase-coupled fluorescence). The format is biochemical. A digest of the protocol: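 Human BCAT1 activity read by resazurin/diaphorase-coupled fluorescence. Compounds added from 50× DMSO stocks at 1:50, giving 10-point 3-fold titrations from 100 μM top final concentration. Run in technical duplicate; repeat tests averaged.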

Assay [3] deals with T1, BCAT2. Nature of the assay: BCAT2 in vitro cell inhibition using engineered A549 cells (KMV cell assay, 13C6-KMV by LC-MS/MS). The format is cell-based. The arrangement: The result was an engineered A549 cell line that expressed endogenous BCAT2; endogenous in cells; host or cells: A549 cells with MUT and BCAT1 knocked out by CRISPR/CAS9; key to BCAT2 Cell Inhibition: A: less than or equal to 0.100 μM; B: greater than 0.100 and less than or equal to 0.500 μM; C: greater than 0.500 and less than or equal to 1.000 μM; d: greater than 1.000 μM; E: no fit.

SMILES strings stand for the structures. Where “and” joins values, the source holds several entries; their conditions need not be identical. Equal entries are not always repeated. A value given as a limit tells only on which side of the number the result lay.

One may read the IC50 as the point on the concentration scale where inhibition reaches its midpoint.

On to `CN1CC(NC(=O)c2ccc(Br)s2)CC(n2c(-c3ccccc3F)nc3cnc(-c4ncco4)cc32)C1` (stereo not drawn) [Example 117, 5-bromo-N-(5-(2-(2-fluorophenyl)-6-(oxazol-2-yl)-1H-imidazo[4,5-c]pyridin-1-yl)-1-methylpiperidin-3-yl)thiophene-2-carboxamide], for which the half-maximal inhibitory concentration (IC50) in assay [1] is not above 100 nM; in assay [2], 500 to 1000 nM; in assay [3], not above 100 nM.

As to `CC(=O)N1CC(NC(=O)c2ccc(Br)s2)CC(n2c(-c3ccccc3F)nc3cnc(-c4ncco4)cc32)C1` (stereo not drawn) [Example 118, N-(1-acetyl-5-(2-(2-fluorophenyl)-6-(oxazol-2-yl)-1H-imidazo[4,5-c]pyridin-1-yl)piperidin-3-yl)-5-bromothiophene-2-carboxamide], the IC50 was not above 100 nM in assay [1], less than 500 nM in assay [2] and not above 100 nM in assay [3].

For the molecule `CC(=O)N1CC(NC(=O)c2ncc(C(F)F)s2)CC(n2c(-c3ncccc3F)nc3cnc(-n4nccn4)cc32)C1` (stereo not drawn) [Example 119, N-(1-acetyl-5-(2-(3-fluoropyridin-2-yl)-6-(2H-1,2,3-triazol-2-yl)-1H-imidazo[4,5-c]pyridin-1-yl)piperidin-3-yl)-5-(difluoromethyl)thiazole-2-carboxamide], the half-maximal inhibitory concentration (IC50) in assay [1] was not above 100 nM; in assay [2], less than 500 nM; in assay [3] it was 100 to 500 nM.

Turning to `CC(=O)N1CC(NC(=O)c2ncc(C(F)F)s2)CC(n2c(-c3ncccc3F)nc3cnc(-n4ccnn4)cc32)C1` (stereo not drawn) [Example 120, N-(1-acetyl-5-(2-(3-fluoropyridin-2-yl)-6-(1H-1,2,3-triazol-1-yl)-1H-imidazo[4,5-c]pyridin-1-yl)piperidin-3-yl)-5-(difluoromethyl)thiazole-2-carboxamide], the concentration for half-maximal inhibition (IC50) is not above 100 nM in assay [1]; 1000 to 5000 nM and > 5000 nM in assay [2]; more than 1000 nM in assay [3].

On to `CC(=O)N1CC(NC(=O)c2ncc(C(F)F)s2)CC(n2c(-c3ccccn3)nc3cnc(-n4nccn4)cc32)C1` (stereo not drawn) [Example 121, N-(1-acetyl-5-(2-(pyridin-2-yl)-6-(2H-1,2,3-triazol-2-yl)-1H-imidazo[4,5-c]pyridin-1-yl)piperidin-3-yl)-5-(difluoromethyl)thiazole-2-carboxamide], for which the IC50 in assay [1] was not above 100 nM; in assay [2] it was 500 to 1000 nM; in assay [3], 100 to 500 nM.

Consider `CC(=O)N1CC(NC(=O)c2ncc(C(F)F)s2)CC(n2c(-c3ccccn3)nc3cnc(-n4ccnn4)cc32)C1` (stereo not drawn) [Example 122, N-(1-acetyl-5-(2-(pyridin-2-yl)-6-(1H-1,2,3-triazol-1-yl)-1H-imidazo[4,5-c]pyridin-1-yl)piperidin-3-yl)-5-(difluoromethyl)thiazole-2-carboxamide], for which the IC50 in assay [1] was 100 to 500 nM; in assay [2], more than 5000 nM. Moreover, the “BCAT2 Cell Inhibition” value in assay [3] is on record as “E”.

Take `CC(=O)N1CC(NC(=O)c2ncc(C(F)F)s2)CC(n2c(-c3ccccc3F)nc3cnc(-n4nccn4)cc32)C1` (stereo not drawn) [Example 123, N-(1-acetyl-5-(2-(2-fluorophenyl)-6-(2H-1,2,3-triazol-2-yl)-1H-imidazo[4,5-c]pyridin-1-yl)piperidin-3-yl)-5-(difluoromethyl)thiazole-2-carboxamide]: the IC50 in assay [1] was not above 100 nM; in assay [2] it was less than 500 nM; in assay [3] it was not above 100 nM.

Turning to `CC(=O)N1CC(NC(=O)c2ncc(C(F)F)s2)CC(n2c(-c3ccccc3F)nc3cnc(-n4ccnn4)cc32)C1` (stereo not drawn) [Example 124, N-(1-acetyl-5-(2-(2-fluorophenyl)-6-(1H-1,2,3-triazol-1-yl)-1H-imidazo[4,5-c]pyridin-1-yl)piperidin-3-yl)-5-(difluoromethyl)thiazole-2-carboxamide], the IC50 is not above 100 nM in assay [1], 1000 to 5000 nM in assay [2] and 100 to 500 nM in assay [3].

On to `O=C(NC1CNCC(n2c(-c3ncccc3F)nc3cnc(-n4nccn4)cc32)C1)c1ncc(C(F)F)s1` (stereo not drawn) [Example 125, 5-(difluoromethyl)-N-(5-(2-(3-fluoropyridin-2-yl)-6-(2H-1,2,3-triazol-2-yl)-1H-imidazo[4,5-c]pyridin-1-yl)piperidin-3-yl)thiazole-2-carboxamide], for which the values for the IC50 in assay [1], in assay [2] and in assay [3] were not above 100 nM, 1000 to 5000 nM and 100 to 500 nM, respectively.

Regarding `CC(=O)N1CC(NC(=O)c2ncc(C(F)F)s2)CC(n2c(-c3ccccc3F)nc3cnc(-c4ncco4)cc32)C1` (stereo not drawn) [Example 126, N-(1-acetyl-5-(2-(2-fluorophenyl)-6-(oxazol-2-yl)-1H-imidazo[4,5-c]pyridin-1-yl)piperidin-3-yl)-5-(difluoromethyl)thiazole-2-carboxamide], the half-maximal inhibitory concentration (IC50) in assay [1] is not above 100 nM; in assay [2], less than 500 nM; in assay [3], not above 100 nM.

On to `CC(=O)N1C[C@@H](NC(=O)c2ncc(C(F)F)s2)C[C@@H](n2c(-c3ccccc3F)nc3cnc(-c4ncco4)cc32)C1` [Example 127, N-((3S,5R)-1-acetyl-5-(2-(2-fluorophenyl)-6-(oxazol-2-yl)-1H-imidazo[4,5-c]pyridin-1-yl)piperidin-3-yl)-5-(difluoromethyl)thiazole-2-carboxamide], for which the IC50 is 100 to 500 nM in assay [1], 1000 to 5000 nM in assay [2] and more than 1000 nM in assay [3].

Regarding `CC(=O)N1C[C@H](NC(=O)c2ncc(C(F)F)s2)C[C@H](n2c(-c3ccccc3F)nc3cnc(-c4ncco4)cc32)C1` [Example 128, N-((3R,5S)-1-acetyl-5-(2-(2-fluorophenyl)-6-(oxazol-2-yl)-1H-imidazo[4,5-c]pyridin-1-yl)piperidin-3-yl)-5-(difluoromethyl)thiazole-2-carboxamide], the IC50 was not above 100 nM in assay [1], less than 500 nM in assay [2] and not above 100 nM in assay [3].

Consider `CC(O)CN1CC(NC(=O)c2ncc(C(F)F)s2)CC(n2c(-c3ncccc3F)nc3cnc(-n4nccn4)cc32)C1` (stereo not drawn) [Example 129, 5-(difluoromethyl)-N-(5-(2-(3-fluoropyridin-2-yl)-6-(2H-1,2,3-triazol-2-yl)-1H-imidazo[4,5-c]pyridin-1-yl)-1-(2-hydroxypropyl)piperidin-3-yl)thiazole-2-carboxamide], for which the IC50 in assay [1] was not above 100 nM; in assay [2], more than 5000 nM; in assay [3], more than 1000 nM.

In the case of `Cc1coc(-c2cc3c(cn2)nc(-c2ccccc2F)n3C2CC(NC(=O)c3ncc(Cl)s3)CN(C)C2)n1` (stereo not drawn) [Example 130, 5-chloro-N-(5-(2-(2-fluorophenyl)-6-(4-methyloxazol-2-yl)-1H-imidazo[4,5-c]pyridin-1-yl)-1-methylpiperidin-3-yl)thiazole-2-carboxamide], the IC50 was not above 100 nM in assay [1], 1000 to 5000 nM in assay [2] and 100 to 500 nM in assay [3].

On to `CC(=O)N1CC(NC(=O)c2ccc(Cl)s2)CC(n2c(CC(C)C)nc3cnc(-n4nccn4)cc32)C1` (stereo not drawn) [Example 131, N-(1-acetyl-5-(2-isobutyl-6-(2H-1,2,3-triazol-2-yl)-1H-imidazo[4,5-c]pyridin-1-yl)piperidin-3-yl)-5-chlorothiophene-2-carboxamide], for which the values for the IC50 in assay [1], in assay [2] and in assay [3] were not above 100 nM, less than 500 nM and 100 to 500 nM, respectively.

In the case of `CC(=O)N1CC(NC(=O)c2ccc(Cl)s2)CC(n2c(-c3ccccc3F)nc3cnc(-n4nccn4)cc32)C1` (stereo not drawn) [Example 132, N-(1-acetyl-5-(2-(2-fluorophenyl)-6-(2H-1,2,3-triazol-2-yl)-1H-imidazo[4,5-c]pyridin-1-yl)piperidin-3-yl)-5-chlorothiophene-2-carboxamide], the half-maximal inhibitory concentration (IC50) in assay [1] was not above 100 nM; in assay [2] it was less than 500 nM; in assay [3], not above 100 nM.

As for `O=C(N[C@H]1CCC[C@@H](n2c(-c3ccccc3F)nc3cc(-n4nccn4)ncc32)C1)c1ncc(C(F)F)s1` [Example 148, 5-(difluoromethyl)-N-((1S,3R)-3-(2-(2-fluorophenyl)-6-(2H-1,2,3-triazol-2-yl)-3H-imidazo[4,5-c]pyridin-3-yl)cyclohexyl)thiazole-2-carboxamide], the half-maximal inhibitory concentration (IC50) was not above 100 nM in assay [1], more than 5000 nM in assay [2] and more than 1000 nM in assay [3].
